Reference: patent publication US9006487B2, “Amine-containing lipids and uses thereof” (Massachusetts Institute of Technology, priority 2005, dated 2015)

Test system: cos-7 cells
Assay: DNA transfection: luciferase expression relative to Lipofectamine 2000
Type: cell-based
Details: 300 ng Luciferase DNA per well, luciferase assay after 48 hours
How it was run: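 Lipid/DNA complexes, 300 ng luciferase DNA per well at 2.5-25 w/w lipid:DNA, were formed in sodium acetate/Optimem and added to overnight-seeded cos-7 cells. Luciferase was measured by Bright-Glo luminescence after 48 hours and quantified against an enzyme standard curve. Values are expressed as % of Lipofectamine 2000 at 2.5 w/w.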

Structure (SMILES)	Luciferase expression as a percentage of that achieved using Lipofectamine 2000 (lipid/DNA 2.5 w/w)	Luciferase expression as a percentage of that achieved using Lipofectamine 2000 (lipid/DNA 5 w/w)	Luciferase expression as a percentage of that achieved using Lipofectamine 2000 (lipid/DNA 10 w/w)	Luciferase expression as a percentage of that achieved using Lipofectamine 2000 (lipid/DNA 15 w/w)	Luciferase expression as a percentage of that achieved using Lipofectamine 2000 (lipid/DNA 20 w/w)	Luciferase expression as a percentage of that achieved using Lipofectamine 2000 (lipid/DNA 25 w/w)
CCCCCCCCCCCCCCOC(=O)CCN(CCC(=O)OCCCCCCCCCCCCCC)C[C@H](C)O [LF22]	0.1%	0.1%	0.1%	0.1%	0.1%	0.1%
CCCCCCCCCCCCCCOC(=O)CCN(CCC(=O)OCCCCCCCCCCCCCC)CC(O)CO (stereo not drawn) [LF24]	0.1%	0.1%	0.1%	0.2%	0.3%	0.3%
CCCCCCCCCCCCCCOC(=O)CCN(CCC(=O)OCCCCCCCCCCCCCC)C(CO)CO [LF25]	0.1%	0.2%	0.3%	0.4%	0.9%	1.5%
CCCCCCCCCCCCCCOC(=O)CCN(CCC(=O)OCCCCCCCCCCCCCC)C(C)(CO)CO [LF26]	0.1%	0.2%	0.7%	0.1%	0.1%	0.3%
CCCCCCCCCCCCCCOC(=O)CCN(CCCCO)CCC(=O)OCCCCCCCCCCCCCC [LF28]	0.1%	0.1%	0.1%	0.2%	0.3%	0.4%
CCCCCCCCCCCCCCOC(=O)CCN(CCCCCO)CCC(=O)OCCCCCCCCCCCCCC [LF32]	0.1%	0.1%	0.2%	0.1%	0.4%	0.4%
CCCCCCCCCCCCCCOC(=O)CCN(CCC(=O)OCCCCCCCCCCCCCC)CC(C)(C)CO [LF33]	0.1%	0.1%	0.1%	0.1%	0.1%	0.1%
CCCCCCCCCCCCCCOC(=O)CCN(CCC(=O)OCCCCCCCCCCCCCC)C(CC)(CO)CO [LF34]	0.1%	0.3%	1.1%	0.5%	0.2%	0.3%
CCCCCCCCCCCCCCOC(=O)CCN(CCCCCCO)CCC(=O)OCCCCCCCCCCCCCC [LF36]	0.1%	0.1%	0.1%	0.1%	0.1%	0.1%
